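Grown in 96-well plates, cells were treated for 48 hours with each compound at five concentrations. Insufficient inhibition: endpoint recorded as highest concentration tested. Abbreviation: GI50, concentration required for 50% inhibition of growth.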 Activity calls are given as the source filed them. Cut-off read from the data, not from the text of the source: active = GI50 up to about 1.1 µM and inactive = higher.
Key:
Test in all cases: growth of human tumour cells (NCI), 48 h
SW-620 = test system: SW-620
PC-3 = test system: PC-3
HL-60 = test system: HL-60
CAKI-1 = test system: CAKI-1
EKVX = test system: EKVX
OVCAR-8 = test system: OVCAR-8
MOLT-4 = test system: MOLT-4
COLO 205 = test system: COLO 205
RXF 393 = test system: RXF 393
OVCAR-4 = test system: OVCAR-4
HOP-62 = test system: HOP-62
OVCAR-5 = test system: OVCAR-5
SF-539 = test system: SF-539
HOP-92 = test system: HOP-92
SF-295 = test system: SF-295
M14 = test system: M14
U-251 = test system: U-251
NCI-H23 = test system: NCI-H23
SK-MEL-28 = test system: SK-MEL-28
RPMI-8226 = test system: RPMI-8226
ACHN = test system: ACHN
OVCAR-3 = test system: OVCAR-3
MDA-N = test system: MDA-N
K562 = test system: K562
UO-31 = test system: UO-31
SK-MEL-5 = test system: SK-MEL-5
NCI-H226 = test system: NCI-H226
MDA-MB-435 = test system: MDA-MB-435
A549 = test system: A549
HCT-116 = test system: HCT-116
SK-MEL-2 = test system: SK-MEL-2
A498 = test system: A498
UACC-257 = test system: UACC-257
MCF7 = test system: MCF7
NCI-H522 = test system: NCI-H522
SR = test system: SR
SK-OV-3 = test system: SK-OV-3
KM12 = test system: KM12
Hs-578T = test system: Hs-578T
BT-549 = test system: BT-549
HT-29 = test system: HT-29
TK-10 = test system: TK-10
IGROV-1 = test system: IGROV-1
MDA-MB-231 = test system: MDA-MB-231
Malme-3M = test system: Malme-3M
DU-145 = test system: DU-145
SNB-19 = test system: SNB-19
NCI-H460 = test system: NCI-H460
SF-268 = test system: SF-268
UACC-62 = test system: UACC-62
LOX IMVI = test system: LOX IMVI
SN12C = test system: SN12C
CCRF-CEM = test system: CCRF-CEM
HCT-15 = test system: HCT-15
NCI/ADR-RES = test system: NCI/ADR-RES
786-0 = test system: 786-0
T47D = test system: T47D

For `CCOC(=O)c1sc2nc(SC)nc3c2c1NC(=O)CN3c1cccc(F)c1`, which GI50 (SW-620) is on record?
Its GI50 is 834 nM (active).

And the GI50 (PC-3)?
Its GI50 is 17.3 µM (inactive).

And the GI50 (HL-60)?
Its GI50 is 491 nM (active).

What about the GI50 (CAKI-1) of the same molecule?
The GI50 was 44.3 µM (inactive).

And the GI50 (EKVX)?
The GI50 was 46 µM (inactive).

And the GI50 (OVCAR-8)?
Its GI50 is 15.5 µM (inactive).

What about the GI50 (MOLT-4) of the same molecule?
The GI50 was 30 µM (inactive).

What about the GI50 (COLO 205) of the same molecule?
Its GI50 is 17.5 µM (inactive).

And the GI50 (RXF 393)?
The GI50 was 16.7 µM (inactive).

And the GI50 (OVCAR-4)?
The GI50 was 17.9 µM (inactive).

What about the GI50 (HOP-62) of the same molecule?
The GI50 was 14.5 µM (inactive).

What about the GI50 (OVCAR-5) of the same molecule?
Its GI50 is 45 µM (inactive).

What about the GI50 (SF-539) of the same molecule?
The GI50 was 735 nM (active).

And the GI50 (HOP-92)?
Its GI50 is 22.5 µM (inactive).

And the GI50 (SF-295)?
The GI50 was 16.3 µM (inactive).

And the GI50 (M14)?
Its GI50 is 20.5 µM (inactive).

What about the GI50 (U-251) of the same molecule?
Its GI50 is 14.4 µM (inactive).

And the GI50 (NCI-H23)?
The GI50 was 27 µM (inactive).

And the GI50 (SK-MEL-28)?
Its GI50 is 138 nM (active).

What about the GI50 (RPMI-8226) of the same molecule?
The GI50 was 9.12 µM (inactive).

And the GI50 (ACHN)?
Its GI50 is 13 µM (inactive).

And the GI50 (OVCAR-3)?
Its GI50 is 19.7 µM (inactive).

And the GI50 (MDA-N)?
The GI50 was 29.8 µM (inactive).

And the GI50 (K562)?
Its GI50 is 22.4 µM (inactive).

What about the GI50 (UO-31) of the same molecule?
Its GI50 is 15.5 µM (inactive).

What about the GI50 (SK-MEL-5) of the same molecule?
Its GI50 is 0.855 µM (active).

What about the GI50 (NCI-H226) of the same molecule?
The GI50 was 6.93 µM (inactive).

What about the GI50 (MDA-MB-435) of the same molecule?
Its GI50 is 27.5 µM (inactive).

What about the GI50 (A549) of the same molecule?
Its GI50 is 14 µM (inactive).

And the GI50 (HCT-116)?
Its GI50 is 18.2 µM (inactive).

And the GI50 (SK-MEL-2)?
Its GI50 is 27.4 µM (inactive).

And the GI50 (A498)?
Its GI50 is 18.2 µM (inactive).

What about the GI50 (UACC-257) of the same molecule?
Its GI50 is 63.5 µM (inactive).

And the GI50 (MCF7)?
Its GI50 is 29 µM (inactive).

What about the GI50 (NCI-H522) of the same molecule?
The GI50 was 26.5 µM (inactive).

And the GI50 (SR)?
Its GI50 is 70 µM (inactive).

And the GI50 (SK-OV-3)?
The GI50 was 20 µM (inactive).

What about the GI50 (KM12) of the same molecule?
The GI50 was 80.5 µM (inactive).

And the GI50 (Hs-578T)?
Its GI50 is 29.2 µM (inactive).

What about the GI50 (BT-549) of the same molecule?
The GI50 was 7.29 µM (inactive).

What about the GI50 (HT-29) of the same molecule?
Its GI50 is 32.6 µM (inactive).

What about the GI50 (TK-10) of the same molecule?
Its GI50 is 28.4 µM (inactive).

And the GI50 (IGROV-1)?
Its GI50 is 61.8 µM (inactive).

And the GI50 (MDA-MB-231)?
The GI50 was 16.1 µM (inactive).

What about the GI50 (Malme-3M) of the same molecule?
Its GI50 is 30.3 µM (inactive).

What about the GI50 (DU-145) of the same molecule?
The GI50 was 26.7 µM (inactive).

What about the GI50 (SNB-19) of the same molecule?
Its GI50 is 20.3 µM (inactive).

And the GI50 (NCI-H460)?
Its GI50 is 26.4 µM (inactive).

What about the GI50 (SF-268) of the same molecule?
The GI50 was 12.4 µM (inactive).

And the GI50 (UACC-62)?
The GI50 was 30.5 µM (inactive).

And the GI50 (LOX IMVI)?
The GI50 was 17.8 µM (inactive).

What about the GI50 (SN12C) of the same molecule?
Its GI50 is 17.2 µM (inactive).

Which GI50 (SW-620) does the source give for `CCCNC(=O)OCc1c(COC(=O)NCCC)c(-c2ccc(Cl)c(Cl)c2)n2c1CCC2` here?
Its GI50 is 4630 nM (inactive).

What about the GI50 (PC-3) of the same molecule?
The GI50 was 8.59 µM (inactive).

What about the GI50 (HL-60) of the same molecule?
The GI50 was 2640 nM (inactive).

And the GI50 (CAKI-1)?
Its GI50 is 1.72 µM (inactive).

And the GI50 (EKVX)?
Its GI50 is 11.2 µM (inactive).

What about the GI50 (OVCAR-8) of the same molecule?
The GI50 was 4.36 µM (inactive).

What about the GI50 (MOLT-4) of the same molecule?
Its GI50 is 3.11 µM (inactive).

And the GI50 (COLO 205)?
Its GI50 is 3.64 µM (inactive).

What about the GI50 (RXF 393) of the same molecule?
Its GI50 is 2.35 µM (inactive).

What about the GI50 (HOP-62) of the same molecule?
The GI50 was 6.01 µM (inactive).

What about the GI50 (OVCAR-5) of the same molecule?
Its GI50 is 3.76 µM (inactive).

What about the GI50 (SF-539) of the same molecule?
The GI50 was 3000 nM (inactive).

What about the GI50 (HOP-92) of the same molecule?
Its GI50 is 2.52 µM (inactive).

What about the GI50 (SF-295) of the same molecule?
Its GI50 is 2.95 µM (inactive).

What about the GI50 (M14) of the same molecule?
The GI50 was 10.6 µM (inactive).

And the GI50 (U-251)?
The GI50 was 4.98 µM (inactive).

And the GI50 (NCI-H23)?
The GI50 was 5.93 µM (inactive).

And the GI50 (RPMI-8226)?
Its GI50 is 5.02 µM (inactive).

What about the GI50 (ACHN) of the same molecule?
The GI50 was 2.01 µM (inactive).

What about the GI50 (OVCAR-3) of the same molecule?
The GI50 was 14 µM (inactive).

What about the GI50 (K562) of the same molecule?
Its GI50 is 4.31 µM (inactive).

What about the GI50 (UO-31) of the same molecule?
Its GI50 is 2.86 µM (inactive).

What about the GI50 (SK-MEL-5) of the same molecule?
Its GI50 is 5.98 µM (inactive).

What about the GI50 (NCI-H226) of the same molecule?
Its GI50 is 1.58 µM (inactive).

And the GI50 (CCRF-CEM)?
Its GI50 is 1.98 µM (inactive).

What about the GI50 (MDA-MB-435) of the same molecule?
Its GI50 is 11.5 µM (inactive).

And the GI50 (A549)?
Its GI50 is 6.61 µM (inactive).

And the GI50 (HCT-116)?
The GI50 was 5.09 µM (inactive).

What about the GI50 (HCT-15) of the same molecule?
The GI50 was 4.18 µM.

What about the GI50 (A498) of the same molecule?
The GI50 was 1.26 µM (inactive).

And the GI50 (NCI/ADR-RES)?
Its GI50 is 3.89 µM (inactive).

And the GI50 (UACC-257)?
The GI50 was 4.79 µM (inactive).

What about the GI50 (786-0) of the same molecule?
Its GI50 is 2.82 µM (inactive).

And the GI50 (MCF7)?
The GI50 was 5.75 µM (inactive).

What about the GI50 (NCI-H522) of the same molecule?
The GI50 was 1.16 µM (inactive).

What about the GI50 (SK-OV-3) of the same molecule?
Its GI50 is 2.81 µM (inactive).

And the GI50 (KM12)?
The GI50 was 10.7 µM (inactive).

What about the GI50 (Hs-578T) of the same molecule?
The GI50 was 6.56 µM (inactive).

What about the GI50 (BT-549) of the same molecule?
The GI50 was 4.07 µM (inactive).

And the GI50 (HT-29)?
The GI50 was 4.12 µM (inactive).

What about the GI50 (T47D) of the same molecule?
Its GI50 is 11.4 µM (inactive).

And the GI50 (TK-10)?
Its GI50 is 1.86 µM (inactive).

What about the GI50 (IGROV-1) of the same molecule?
The GI50 was 1.05 µM (active).

And the GI50 (MDA-MB-231)?
The GI50 was 4.84 µM (inactive).

And the GI50 (Malme-3M)?
Its GI50 is 2.94 µM (inactive).

What about the GI50 (DU-145) of the same molecule?
The GI50 was 7 µM (inactive).

What about the GI50 (SNB-19) of the same molecule?
The GI50 was 8.93 µM (inactive).

And the GI50 (NCI-H460)?
The GI50 was 3.57 µM (inactive).

And the GI50 (SF-268)?
The GI50 was 4.33 µM (inactive).

What about the GI50 (UACC-62) of the same molecule?
Its GI50 is 2.8 µM (inactive).

And the GI50 (LOX IMVI)?
Its GI50 is 3.78 µM (inactive).

And the GI50 (SN12C)?
The GI50 was 3.11 µM (inactive).

— ChEMBL document CHEMBL1201862, “PubChem BioAssay data set” (2004)
